{"source": "patent US8906349B2", "about": "“Oral care composition” (priority 2009, dated 2014)", "type_in_all_cases": "cell-based", "key": {"[1]": {"test_system": "A. viscosus", "test": "Minimum inhibitory concentration, serial dilution in 96-well plate, 24 h", "conditions": "Actinomyces viscosus, read-out: MIC (A. viscosus)", "protocol": "The minimum inhibitory concentration for actives was determined by incubating Actinomyces viscosus bacteria with serial dilutions of the active for 24 hours and determining the lowest concentration at which growth of this species was inhibited. Briefly, 100 μl final volume actives were serially diluted in 0.5× tryptic soy broth (TSB) across duplicate wells of a 96-well flat bottom microtiter plate. An overnight culture of bacteria was diluted to an OD610 ˜0.2 and 100 μl of this was added to each well. Plates were incubated overnight at 37° C. OD610 was read for each well and the MIC was determined as the concentration of active in the last well where bacterial growth was inhibited."}, "[2]": {"test_system": "A. viscosus biofilm", "test": "Inhibition of single-species biofilm formation by serial dilutions of bisabolol (Example 2)", "conditions": "bisabolol alone, 24 hours, FIG. 1", "protocol": "The effect of different concentrations of bisabolol on the inhibition of A. viscosus biofilm formation was tested. A. viscosus bacteria were grown for 24 hours in the presence of serial dilutions of bisabolol or an equivalent concentration of EtOH. Wells were stained to visualize biofilm formation. The results are shown in FIG. 1 where the x-axis represents the concentration of bisabolol (or an equivalent solution of EtOH in media) and the y-axis represents the percent reduction in biofilm relative to control wells grown in media alone."}, "[3]": {"test_system": "A. viscosus biofilm", "test": "Biofilm Eradication Concentration (BEC50), crystal violet biomass, compositions serially diluted (Example 3)", "conditions": "FIG. 2; for BEC(50) alone: active tested alone, lowest concentration with >50% reduction in biomass vs media control; for BEC50 in combination: bisabolol (0.7%) and Triclosan (0.05%) composition serially diluted, concentration of the named active in the combination", "protocol": "A composition comprising bisabolol, a composition comprising the antibacterial agent Triclosan and a composition comprising both bisabolol and Triclosan were tested for antibiofilm activity.\nA composition comprising bisabolol (0.7%), a composition comprising Triclosan (0.05%) and a composition comprising bisabolol (0.7%) and Triclosan (0.05%) were each serially diluted in a 96-well plate. A. viscosus cultures were added to each well and plates were incubated at 37° C. to allow biofilm formation to occur. Following biofilm formation, supernatants were removed and wells were stained with 0.6% crystal violet for 15 min. Biofilm biomass was quantified by reading the absorbance of each well at 590 nm and the percentage reduction in biomass relative to a control of media alone was calculated.\nBEC50 is defined as the minimum concentration at which a greater than 50% reduction of biofilm formation is observed."}, "[4]": {"test_system": "A. viscosus biofilm", "test": "Bioenhancement assay: BEC50 of antimicrobial agents with or without bisabolol, crystal violet, 24 h (Examples 4 and 5)"}, "[5]": {"test_system": "five-species biofilm: A. viscosus, Lactobacillus casei, Streptococcus oralis, Fusobacterium nucleatum and Veillonella parvula", "test": "Multispecies biofilm formation on saliva coated hydroxyapatite disks, 48 h, OD610 (Example 6)", "conditions": "20 ppm of Triclosan alone, FIG. 5", "protocol": "The ability of compositions comprising Triclosan and bisabolol either alone or in combination to inhibit biofilm formation were tested in a multispecies model where the biofilms comprised five representative oral bacterial species: A. viscosus, Lactobacillus casei, Streptococcus oralis, Fusobacterium nucleatum and Veillonella parvula. Saliva coated hydroxyapatite (HAP) disks were inoculated with this five-species mix of bacteria in the presence Triclosan alone, bisabolol alone or with a 2:1 concentration of bisabolol:Triclosan. Disks were incubated for 48 h to allow biofilm formation to occur. Biofilm containing disks are were incubated in 1 ml of 0.25% trypsin solution for 45 min at 37° C. to release the biofilm and biomass was read as the OD610 of the trypsin solution.\nIn order to determine any antibiofilm effect beyond that of Triclosan, it was necessary to reduce the concentration of Triclosan below the inhibitory concentration. […]"}, "[6]": {"conditions": "Table 2, absence of bisabolol, FIG. 4a"}, "[7]": {"conditions": "Table 2, presence of 50 ppm bisabolol, FIG. 4a"}, "[8]": {"conditions": "first Table 3, said to be raw data of FIG. 4b, absence of bisabolol"}, "[9]": {"conditions": "first Table 3, said to be raw data of FIG. 4b, presence of 50 ppm bisabolol"}}, "note": "Where two headings read alike, the source gives them in different places.", "data": [{"compound": "CC(C)=CCC[C@](C)(O)C1CC=C(C)CC1", "note": "(some centres unmarked) [Bisabolol]", "values": [{"measurement": "MIC", "setting": "[1]; lowest concentration inhibiting growth, overnight at 37° C., 0.5× TSB", "value": 125, "unit": "µg/mL"}, {"measurement": "lowest concentration inhibiting formation of single-species biofilms", "setting": "[2]", "value": 110, "unit": "ppm"}, {"measurement": "BEC(50) alone", "setting": "[3]", "value": 110, "unit": "ppm"}, {"measurement": "BEC50 in combination", "setting": "[3]", "value": 27.3, "unit": "ppm"}]}, {"compound": "CCCCCCCCCCCCCCCC[n+]1ccccc1", "note": "[CPC, cetyl pyridinium chloride]", "values": [{"measurement": "BEC(50) alone", "setting": "[4]; [6]", "value": 0.6836}, {"measurement": "BEC(50) w/bisabolol", "setting": "[4]; [7]", "value": 0.4883}, {"measurement": "BEC(50) alone", "setting": "[4]; [8]", "value": 0.1196}, {"measurement": "BEC(50) w/bisabolol", "setting": "[4]; [9]", "value": "1.7999E−07"}]}, {"compound": "Oc1cc(Cl)ccc1Oc1ccc(Cl)cc1Cl", "note": "[Triclosan]", "values": [{"measurement": "MIC", "setting": "[1]", "value": 3.5, "unit": "µg/mL"}, {"measurement": "BEC(50) alone", "setting": "[3]", "value": "approximately 3.9 ppm"}, {"measurement": "BEC50 in combination", "setting": "[3]", "value": 1.95, "unit": "ppm"}, {"measurement": "BEC50 of Triclosan alone", "setting": "[4]; Example 4, no bisabolol, FIG. 3", "value": 4.13, "unit": "ppm"}, {"measurement": "BEC50 of Triclosan in the composition comprising bisabolol", "setting": "[4]; Example 4, with 5 ppm bisabolol, FIG. 3", "value": 1.78, "unit": "ppm"}, {"measurement": "BEC(50) alone", "setting": "[4]; [6]", "value": 1.465}, {"measurement": "BEC(50) w/bisabolol", "setting": "[4]; [7]", "value": 0.4883}, {"measurement": "BEC(50) alone", "setting": "[4]; [8]", "value": 0.2819}, {"measurement": "BEC(50) w/bisabolol", "setting": "[4]; [9]", "value": 0}, {"measurement": "reduction in biofilm formation", "setting": "[5]", "value": "> 60", "unit": "%"}]}, {"compound": "CCCCc1ccc(O)c(-c2cc(CCCC)ccc2O)c1", "note": "[butyl magnolol]", "values": [{"measurement": "BEC(50) alone", "setting": "[4]; [6]", "value": 0.5859}, {"measurement": "BEC(50) w/bisabolol", "setting": "[4]; [7]", "value": 0.5859}, {"measurement": "BEC(50) alone", "setting": "[4]; [8]", "value": 0.09766}, {"measurement": "BEC(50) w/bisabolol", "setting": "[4]; [9]", "value": 0.09766}]}, {"compound": "C=CCc1ccc(O)c(-c2ccc(O)c(CC=C)c2)c1", "note": "[honokiol]", "values": [{"measurement": "BEC(50) alone", "setting": "[4]; [6]", "value": 13.38}, {"measurement": "BEC(50) w/bisabolol", "setting": "[4]; [7]", "value": 5.176}, {"measurement": "BEC(50) alone", "setting": "[4]; [8]", "value": 5.41}, {"measurement": "BEC(50) w/bisabolol", "setting": "[4]; [9]", "value": 2.69}]}, {"compound": "C=CCc1ccc(O)c(-c2cc(CC=C)ccc2O)c1", "note": "[magnolol]", "values": [{"measurement": "BEC(50) alone", "setting": "[4]; [6]", "value": 3.906}, {"measurement": "BEC(50) w/bisabolol", "setting": "[4]; [7]", "value": 0.8789}, {"measurement": "BEC(50) alone", "setting": "[4]; [8]", "value": 1.07}, {"measurement": "BEC(50) w/bisabolol", "setting": "[4]; [9]", "value": 0.2847}]}, {"compound": "CCCc1ccc(O)c(-c2ccc(O)c(CCC)c2)c1", "note": "[propyl honokiol]", "values": [{"measurement": "BEC(50) alone", "setting": "[4]; [6]", "value": 2.344}, {"measurement": "BEC(50) w/bisabolol", "setting": "[4]; [7]", "value": 1.367}, {"measurement": "BEC(50) alone", "setting": "[4]; [8]", "value": 0.3906}, {"measurement": "BEC(50) w/bisabolol", "setting": "[4]; [9]", "value": 0.2392}]}, {"compound": "[Cl][Sn][Cl]", "note": "[stannous chloride]", "values": [{"measurement": "BEC(50) alone", "setting": "[4]; [6]", "value": 234.375}, {"measurement": "BEC(50) w/bisabolol", "setting": "[4]; [7]", "value": 161.1}, {"measurement": "BEC(50) alone", "setting": "[4]; [8]", "value": 45.11}, {"measurement": "BEC(50) w/bisabolol", "setting": "[4]; [9]", "value": 59.87}]}, {"compound": "[F][Sn][F]", "note": "[stannous flouride, stannous fluoride]", "values": [{"measurement": "BEC(50) alone", "setting": "[4]; [6]", "value": 312.5}, {"measurement": "BEC(50) w/bisabolol", "setting": "[4]; [7]", "value": 86.06}, {"measurement": "BEC(50) alone", "setting": "[4]; [8]", "value": 0}, {"measurement": "BEC(50) w/bisabolol", "setting": "[4]; [9]", "value": 75.56}]}, {"compound": "O=C([O-])CC(O)(CC(=O)[O-])C(=O)[O-].O=C([O-])CC(O)(CC(=O)[O-])C(=O)[O-].[Zn+2].[Zn+2].[Zn+2]", "note": "[zinc citrate]", "values": [{"measurement": "BEC(50) alone", "setting": "[4]; [6]", "value": 208.3}, {"measurement": "BEC(50) w/bisabolol", "setting": "[4]; [7]", "value": 19.53}, {"measurement": "BEC(50) alone", "setting": "[4]; [8]", "value": 52.08}, {"measurement": "BEC(50) w/bisabolol", "setting": "[4]; [9]", "value": 9.766}]}, {"compound": "catechin", "values": [{"measurement": "BEC(50) alone", "setting": "[4]; [6]", "value": 812.5}, {"measurement": "BEC(50) w/bisabolol", "setting": "[4]; [7]", "value": 618.75}, {"measurement": "BEC(50) alone", "setting": "[4]; [8]", "value": 187.5}, {"measurement": "BEC(50) w/bisabolol", "setting": "[4]; [9]", "value": 233.5}]}]}
